Measured values taken from US11214803B2, “Modulators of YAP1 expression” (Ionis Pharmaceuticals, Inc., priority 2019, dated 2022).
Strand notation (5' to 3'): a small letter for the sugar, then the base; units joined by * are phosphorothioate-linked, units joined directly phosphodiester-linked; [ ] holds rarer units or linkages, { } end groups; capitals alone tell only the bases. k = constrained ethyl (cEt); [5mC] = 5-methylcytosine; d = 2'-deoxy (DNA)

Experiments:
[1] = tested on: Yap1 mRNA; assay: Antisense inhibition of human Yap1 in A-431 cells by cEt gapmers, single dose (Example 2, RTS4814); type: cell-based
Method in brief: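 Free uptake, 2,000 nM, ~48 h, A-431 at 5,000 cells/well. Readout: RT-qPCR (RTS4814), RIBOGREEN-normalized, % UTC. 16-mer 3-10-3 cEt gapmers, full PS backbone, all C as 5-methylcytosine.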

[2] = tested on: Yap1 mRNA; assay: Dose-dependent inhibition of human Yap1 in A-431 cells (Example 8, 10,000 cells per well, RTS4814); type: cell-based; conditions: free uptake, approximately 48 hours, RTS4814; for Yap1 mRNA, % UTC: A-431 cells, 10,000 cells per well; for IC50: A-431 cells, linear regression on log/linear plot
Method in brief: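 A-431 cells (10,000/well) dosed with modified oligonucleotides by free uptake; Yap1 mRNA measured ~48 h later with primer-probe set RTS4814, normalized to total RNA (RIBOGREEN). Values are % of untreated control; IC50 from linear regression on log/linear plot.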

[3] = Yap1 mRNA as percent of untreated control, A-431 cells, 3-10-3 cEt gapmers targeting SEQ ID NO.: 1, and 2, Table 30
[4] = Yap1 mRNA as percent of untreated control, A-431 cells, 3-10-3 cEt gapmers targeting SEQ ID NO.: 1, and 2, Table 31
[5] = Table 32, Yap1 mRNA, percent of untreated control, 3-10-3 cEt gapmers targeting SEQ ID NO.: 1, and 2
[6] = Table 5, A-431 cells, 5,000 cells per well, free uptake, 2,000 nM modified oligonucleotide, approx. 48 hours, RTS4814, normalized to RIBOGREEN, Yap1 mRNA relative to untreated control cells
[7] = A-431 cells, 5,000 cells per well, free uptake, 2,000 nM modified oligonucleotide, approx. 48 hours, RTS4814, normalized to RIBOGREEN, Table 4, asterisk (*) = targets amplicon region of primer probe set
[8] = Table 21, Yap1 mRNA, percent of untreated control, 3-10-3 cEt gapmers targeting SEQ ID NO.: 1 and 2

Row | Substance | YAP1 (% UTC) [1, 3] [% UTC] | Yap1 mRNA, % UTC ([2]; 31.3 nM) [% UTC] | Yap1 mRNA, % UTC ([2]; 125.0 nM) [% UTC] | Yap1 mRNA, % UTC ([2]; 500.0 nM) [% UTC] | Yap1 mRNA, % UTC ([2]; 2000.00 nM) [% UTC] | IC50 [2] [nM] | also measured
1 | 1074480 (kT*k[5mC]*kA*dT*dT*dT*dG*d[5mC]*d[5mC]*dT*dA*dG*dG*kT*kT*k[5mC]; antisense) [compound 1074480] | 3 | 33 | 9 | 5 | 3 | < 20 | 
2 | 1074800 (k[5mC]*kA*kA*dA*dT*dA*dG*dT*dG*d[5mC]*dT*dT*dT*kG*kG*kA; antisense) [compound 1074800] | 6 | 48 | 21 | 10 | 7 | < 20 | 
3 | 1076369 (antisense kT*kA*kT*dT*d[5mC]*dG*dG*dT*dA*dT*dT*dT*dT*k[5mC]*kT*kA) [compound 1076369] |  | 60 | 20 | 6 | 3 | < 20 | YAP1 (% UTC) [1, 4]: 2 % UTC
4 | 1074610 (DNA kT*k[5mC]*kT*dA*dG*dT*dT*dA*d[5mC]*dA*dT*d[5mC]*dA*kT*k[5mC]*kT) [compound 1074610] |  | 57 | 20 | 10 | 7 | < 20 | YAP1 (% UTC) [1, 5]: 5 % UTC
5 | 1076114 (kA*kT*kT*dA*dG*dT*dA*dA*dG*d[5mC]*dT*dG*dA*kG*kG*kA; antisense) [compound 1076114] |  | 34 | 11 | 6 | 5 | < 20 | YAP1 (% UTC) [1, 5]: 3 % UTC
6 | 1074675 (antisense kA*kA*kA*dT*dT*dA*dT*dA*dG*dG*d[5mC]*dA*d[5mC]*kT*k[5mC]*k[5mC]) [compound 1074675] |  | 47 | 18 | 6 | 3 | < 20 | YAP1 (% UTC) ([1]; Table 33, Yap1 mRNA, percent of untreated control, 3-10-3 cEt gapmers targeting SEQ ID NO.: 1, and 2): 6 % UTC
7 | 1075792 (kG*kA*kT*dT*dA*dG*dA*dA*dA*dG*dT*dG*d[5mC]*k[5mC]*kT*kT; antisense) [compound 1075792] | 6 | 79 | 41 | 15 | 10 | 100 | 
8 | 1074736 (kT*k[5mC]*kA*dG*dT*dA*d[5mC]*dA*dG*dA*dG*dG*dG*k[5mC]*kA*kT; antisense) [compound 1074736] | 4 | 34 | 12 | 7 | 7 | < 20 | 
9 | 1074576 (DNA kA*kT*kG*d[5mC]*dA*d[5mC]*dA*dT*dT*dA*dT*dG*dA*kA*k[5mC]*k[5mC]) [compound 1074576] | 7 | 69 | 41 | 14 | 9 | 100 | 
10 | 1074448 (kT*kA*kA*dT*dG*dA*dT*dA*dG*d[5mC]*dA*d[5mC]*dT*kA*kG*kG; antisense) [compound 1074448] | 3 | 54 | 13 | 4 | 3 | < 20 | 
11 | 1074577 (DNA kT*kA*kT*dT*dT*d[5mC]*dT*dG*dT*d[5mC]*dA*dT*dG*k[5mC]*kA*k[5mC]) [compound 1074577] |  | 33 | 10 | 4 | 3 | < 20 | YAP1 (% UTC) [1, 4]: 3 % UTC
12 | 1074672 (antisense k[5mC]*k[5mC]*kA*dA*dG*dT*dA*dG*d[5mC]*dT*dT*dT*dG*kA*kT*k[5mC]) [compound 1074672] | 6 | 34 | 18 | 10 | 7 | < 20 | 
13 | 1074450 (kA*k[5mC]*kT*dA*dA*dT*dG*dA*dT*dA*dG*d[5mC]*dA*k[5mC]*kT*kA; antisense) [compound 1074450] |  | 54 | 22 | 7 | 5 | < 20 | YAP1 (% UTC) [1, 5]: 5 % UTC
14 | 1074608 (DNA kG*kT*kT*dA*d[5mC]*dA*dT*d[5mC]*dA*dT*d[5mC]*dT*d[5mC]*kT*kT*k[5mC]) [compound 1074608] | 5 | 49 | 20 | 9 | 7 | < 20 | 
15 | 716537 (antisense kA*kT*kG*dT*dG*d[5mC]*dT*d[5mC]*d[5mC]*dA*dT*d[5mC]*dA*kA*k[5mC]*k[5mC]) [Compound 716537] |  |  |  |  |  |  | YAP1 (% UTC) ([1]; Table 6, A-431 cells, 5,000 cells per well, free uptake, 2,000 nM modified oligonucleotide, approx. 48 hours, RTS4814, normalized to RIBOGREEN, Yap1 mRNA relative to untreated control cells): 36 % UTC
16 | 716491 (k[5mC]*kT*kG*dG*dT*dG*d[5mC]*d[5mC]*dA*d[5mC]*dT*dT*dT*kA*kA*kT; antisense) [Compound 716491] |  |  |  |  |  |  | YAP1 (% UTC) [1, 6]: 54 % UTC
17 | 1076069 (kT*k[5mC]*kT*dA*dA*dA*dA*dT*dG*dA*d[5mC]*d[5mC]*dT*kT*kA*kG; antisense) [Compound 1076069] |  |  |  |  |  |  | YAP1 (% UTC) ([1]; Table 19, A-431 cells, 5,000 cells per well, free uptake, 2,000 nM modified oligonucleotide, approx. 48 hours, RTS4814, normalized to RIBOGREEN, Yap1 mRNA as percent of untreated control): 118 % UTC
18 | 716451 (k[5mC]*k[5mC]*k[5mC]*dA*dA*dG*d[5mC]*dT*dA*d[5mC]*dA*dA*d[5mC]*kT*kA*kT; antisense) [Compound 716451] |  |  |  |  |  |  | YAP1 (% UTC) [1, 7]: 67 % UTC
19 | 1075120 (kA*kA*kT*dT*dA*dG*d[5mC]*d[5mC]*dT*dA*d[5mC]*d[5mC]*dA*k[5mC]*k[5mC]*kT; antisense) [compound 1075120] | 42 |  |  |  |  |  | 
20 | 1075593 (k[5mC]*kA*kT*dT*dA*dG*dA*dG*dT*dA*dT*dG*dA*kA*k[5mC]*kT; antisense) [Compound 1075593] |  |  |  |  |  |  | YAP1 (% UTC) ([1]; Table 23, Yap1 mRNA as percent of untreated control, 3-10-3 cEt gapmers, single dose): 99 % UTC
21 | 1074182 (antisense kG*k[5mC]*k[5mC]*d[5mC]*dG*dG*dG*dA*dT*d[5mC]*d[5mC]*dA*dT*kG*kG*k[5mC]) [Compound 1074182] |  |  |  |  |  |  | YAP1 (% UTC) ([1]; Table 20, Yap1 mRNA, percent of untreated control, 3-10-3 cEt gapmers targeting SEQ ID NO.: 1 and 2): 82 % UTC
22 | 716455 (kG*kT*kT*dA*dT*dG*dT*dT*dT*dG*dG*dG*dT*kG*kT*kG; antisense) [Compound 716455] |  |  |  |  |  |  | YAP1 (% UTC) [1, 6]: 17 % UTC
23 | 1074928 (antisense kA*kT*kA*d[5mC]*dA*dA*d[5mC]*dA*dG*dG*d[5mC]*d[5mC]*dT*kG*k[5mC]*kA) [compound 1074928] | 83 |  |  |  |  |  | 
24 | 1075472 (kG*kA*kT*dT*dA*dT*dA*dG*dT*dT*dA*dA*dA*k[5mC]*kA*kG; antisense) [compound 1075472] | 92 |  |  |  |  |  | 
25 | 1074186 (antisense kG*kG*kG*d[5mC]*d[5mC]*dG*dG*dT*dT*dG*dA*dG*dG*k[5mC]*kG*kG) [Compound 1074186] |  |  |  |  |  |  | YAP1 (% UTC) ([1]; Table 24, Yap1 mRNA as percent of untreated control, 3-10-3 cEt gapmers targeting SEQ ID NO.: 1, and 2): 74 % UTC
26 | 716445 (kG*kT*kA*dT*dG*dT*dG*dG*d[5mC]*dA*dA*dT*dA*kA*kT*kT; antisense) [Compound 716445] |  |  |  |  |  |  | YAP1 (% UTC) [1, 7]: 28 % UTC
27 | 1074919 (antisense k[5mC]*kT*k[5mC]*dA*dA*dG*dT*dT*dA*d[5mC]*dA*dT*d[5mC]*k[5mC]*k[5mC]*kG) [Compound 1074919] |  |  |  |  |  |  | YAP1 (% UTC) [1, 8]: 48 % UTC
28 | 1074507 (kA*kT*kA*dA*dT*d[5mC]*dG*dA*dG*dA*dT*dT*dT*kA*kA*kA; antisense) [Compound 1074507] |  |  |  |  |  |  | YAP1 (% UTC) ([1]; Table 25, Yap1 mRNA as percent of untreated control, 3-10-3 cEt gapmers targeting SEQ ID NO.: 1, and 2): 74 % UTC
29 | 1076455 (antisense kA*k[5mC]*kT*dA*dA*dA*dT*dA*d[5mC]*dT*dT*dT*dT*kA*kG*k[5mC]) [Compound 1076455] |  |  |  |  |  |  | YAP1 (% UTC) [1, 8]: 86 % UTC
30 | 1075143 (antisense k[5mC]*k[5mC]*kT*dT*dA*dT*dT*dA*dG*dT*d[5mC]*dA*dG*kT*kT*k[5mC]) [Compound 1075143] |  |  |  |  |  |  | YAP1 (% UTC) [1, 8]: 2 % UTC
